Columns and labels:
[1] = target: T1, hDNA2, Bloom syndrome and RPA (Homo sapiens, UniProt P51530); assay: Reconstituted 5' DNA end resection assay (2-kb dsDNA degradation); assay type: biochemical; details: hDNA2 5 nM, Bloom syndrome 5 nM, RPA 100 nM
T1 construct: made in house
T1 sequence (P51530 1-1060): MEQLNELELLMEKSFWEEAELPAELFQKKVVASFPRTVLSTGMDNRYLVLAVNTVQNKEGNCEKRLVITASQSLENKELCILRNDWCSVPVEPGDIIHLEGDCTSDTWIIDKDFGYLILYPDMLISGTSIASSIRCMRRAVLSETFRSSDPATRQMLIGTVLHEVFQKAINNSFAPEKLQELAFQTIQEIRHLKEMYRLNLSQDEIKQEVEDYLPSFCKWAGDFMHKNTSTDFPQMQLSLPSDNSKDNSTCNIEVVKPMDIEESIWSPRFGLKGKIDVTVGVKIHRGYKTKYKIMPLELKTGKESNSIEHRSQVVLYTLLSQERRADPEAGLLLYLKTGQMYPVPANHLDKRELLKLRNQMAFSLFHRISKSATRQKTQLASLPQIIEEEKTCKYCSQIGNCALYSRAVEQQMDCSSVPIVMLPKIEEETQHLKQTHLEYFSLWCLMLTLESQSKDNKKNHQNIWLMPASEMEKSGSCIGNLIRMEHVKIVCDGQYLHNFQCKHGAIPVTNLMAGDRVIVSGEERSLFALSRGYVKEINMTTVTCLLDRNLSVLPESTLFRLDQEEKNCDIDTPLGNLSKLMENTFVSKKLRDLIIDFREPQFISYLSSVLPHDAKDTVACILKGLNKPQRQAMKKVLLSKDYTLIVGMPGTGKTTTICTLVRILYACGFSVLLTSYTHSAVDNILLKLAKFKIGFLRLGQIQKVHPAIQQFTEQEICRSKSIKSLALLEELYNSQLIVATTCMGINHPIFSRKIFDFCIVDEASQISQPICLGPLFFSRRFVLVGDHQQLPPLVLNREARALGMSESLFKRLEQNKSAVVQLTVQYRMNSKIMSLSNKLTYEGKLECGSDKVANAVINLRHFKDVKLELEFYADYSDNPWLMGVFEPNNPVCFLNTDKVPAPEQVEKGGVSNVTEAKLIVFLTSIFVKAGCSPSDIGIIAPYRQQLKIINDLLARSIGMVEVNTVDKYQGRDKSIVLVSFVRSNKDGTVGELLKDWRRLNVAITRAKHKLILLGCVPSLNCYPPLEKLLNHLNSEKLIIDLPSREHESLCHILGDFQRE
Description: Figure 3 Validation of the top two inhibitors identified from the high-throughput screen. […] (b, c) Dose-response curves for indicated compounds, cell based (U2OS cell line) (b) and in vitro (c). The IC50 value and the protein concentration used are indicated. Triple labeled substrate (0.1 μM) as in Figure 2a was used. The concentration range of inhibitors was 0.003–666.67 μM. […] The asterisks denote the radiolabel. Plotted are the average data from three independent experiments and the error bars represent 1 s.d.
Nuclease assays were performed in buffer R (20 mM Na-HEPES pH 7.5, 1 mM ATP, 0.1 mM DTT, 100 μg/ml bovine serum albumin, 0.05% Triton X-100, 2 mM MgCl2, 100 mM KCl) and contained 0.5 nM ends (2-kb substrate) or 5 nM ends (the ssDNA oligonucleotide PSOL6929) of DNA. Reactions containing Bloom syndrome also included an ATP regenerating system consisting of 10 mM creatine phosphate and 50 μg/ml creatine kinase. […] Gels were dried onto DEAE paper on top of Whatman filter paper (GE, Issaquah, WA, USA) and then analyzed in a BioRad Personal Molecular Imager FX phosphorimager. Band intensity was quantified using Image Lab software (Bio-Rad, Hercules, CA, USA). The fraction of DNA substrate digested was determined by measuring the amount of substrate remaining and normalizing to the total substrate in the negative control lane containing no protein.

U2OS cells = assay: Cell-based viability/proliferation screen, DAPI staining and automated microscopy; parameters: species or system human; details: for IC50: Homo sapiens, 10 pM to 10 μM, DAPI staining, read-out: IC50 from Screening Cell Based
Description: The biological effectiveness of the 39 compounds selected by re-screening was determined by measuring their half maximal inhibitory concentration (IC50) biochemically and in a cell-based system using the 384-well platform (Supplementary Table S2). […] We conducted the viability assay in duplicate on three separate occasions using a concentration range of 10 pM to 10 μM for each compound. Cell proliferation was determined using 4,6-diamidino-2-phenylindole staining and microscopy.
In addition, a second dark quencher ZEN (N,N-diethyl-4-(4-nitronaphthalen-1-ylazo)-phenylamine, absorption max.=532 nm) is placed between 9th and 10th base (Figure 2a). Initial screen, it was performed with yDna2.[22] Then, the top candidate compounds were tested on hDNA2. Identical reaction conditions were used for assaying the nuclease activity of yDna2 and hDNA2. […] The reaction buffer was 20 mM HEPES/NaOH, pH 7.5, 60 mM KCl, 1 mM DTT, 100 μg/ml bovine serum albumin and 0.05% Triton X-100. The nuclease assay was initiated by adding MgCl2 (3 mM final concentration). T5 nuclease was assayed in the buffer (50 mM potassium acetate, pH 7.9, 20 mM Tris-acetate, 10 mM magnesium acetate and 1 mM DTT) provided by the vendor (NEB, Ipswich, MA, USA). The concentration of the fluorogenic substrate was 0.1 μM. The optimal amount of yDna2, hDNA2 and T5 nuclease was determined by utilizing the Kaleidagraph software (Reading, PA, USA) to fit the data according to Michaelis Menton Kinetics (V=V0+Vmax*x/(Km+x)). […] All the compounds were dissolved in DMSO and DMSO alone was used as control; the final concentration of DMSO was at 3.33% for protein-based assay and 0.1% for cell-based assay. The Z’ value was calculated as previously described.[50] Cell proliferation was determined using 4,6-diamidino-2-phenylindole staining followed by high-throughput microscopy in a 384-well plate setup. In brief, cells were fixed with formaldehyde, washed and stained with 4,6-diamidino-2-phenylindole and the number of nuclei in each well counted by automated microscopy. The data were analyzed as described.[51]

| Structure (SMILES) | Resection in the reconstituted system [1] | IC50 (U2OS cells) | Effect of longer exposure on cells (U2OS cells; exposure >48 h) |
| --- | --- | --- | --- |
| O=C1C(=O)c2cc([N+](=O)[O-])ccc2-c2ccccc21 [NSC-5195242, 2-nitrophenanthrene-9,10-dione] | inhibited | 1 µM | – |
| NC1=C(Br)C(=O)c2ncccc2C1=O [NSC-105808, 6-amino-7-bromoquinoline-5,8-dione] | inhibited | 2.7 µM | causes cell death |

From article PMC5520492, “Inhibition of DNA2 nuclease as a therapeutic strategy targeting replication stress in cancer cells” (Oncogenesis, 2017)
